In the assay the test system is HCT116 p53 WT cells and p53 KO cells. The experiment in a line: Growth inhibition assay (sulforhodamine B). The format is cell-based, human. The note with it: single drug alone; HCT116 p53 WT and p53 knockout cells; FIG. 4 and FIG. 5. The protocol: The isogenic p53 human colon cancer cell line (WT and KO), HCT116 (see Hwang et al. Nat Med 2001 November 7(11):1255). Cells were maintained in McCoys 5A medium (Sigma) supplemented with 10% foetal calf serum (Gibco) at 37° C. in a 5% CO2 enriched humidified environment, Penicillin and Streptomycin. 96 well flat-bottomed plates were seeded with 3×10^3 cells per well and allowed to adhere overnight. Media was then replaced with fresh media alone (control) or containing test drugs e.g. 0-100 μM irinotecan, 50 to 200 nM geldanamycin (GA) and combinations of both. At fixed time points, cells were fixed with 3:1 methanol:acetic acid and stained with 0.4% w/v sulforhodamine B (Sigma) in 1% v/v acetic acid for 30 minutes. Plates were then washed twice with 1% v/v acetic acid, the dye solubilised with 100 μl per well of 10 mM Tris pH 10.4 and read at […] using a Benchmark microplate reader (BioRad). Drugs were used in the following concentrations for Growth inhibition and Clonogenic assays: [table]

The values that follow come from patent US20050239720A1, “Combination of an agent that attenuates topoisomerase 1 activity and an agent that inhibits heat shock protein 90 for use in chemotherapy” (UNIVERSITY OF LIVERPOOL Senate House, priority 2002, published 2005).

Structures are written as SMILES.

For the compound `COC1=C2C[C@@H](C)C[C@H](OC)[C@H](O)[C@@H](C)/C=C(\C)[C@H](OC(N)=O)[C@@H](OC)/C=C\C=C(/C)C(=O)NC(=CC1=O)C2=O` [Geldanamycin], the “effect on cell growth” value is recorded as “inhibitory effects”. As for `CCc1c2c(nc3ccc(OC(=O)N4CCC(N5CCCCC5)CC4)cc13)-c1cc3c(c(=O)n1C2)COC(=O)[C@]3(O)CC` [Irinotecan], the “effect on cell growth” value was “inhibitory effects”.
